Measured values as given in US6465625B1, “Taxol derivatives” (Albany Molecular Research, Inc., priority 1995, dated 2002).

What was measured:
solubility in water = details: for solubility greater than that of taxol: relative to taxol, rounded figures of b160; for increase of water solubility relative to taxol: relative to taxol (<4 μg/ml)
[1] = system: MOLT-4 cells, a lymphoblastic leukemia cell line; test: cytotoxicity against MOLT-4 cells (trypan blue exclusion, cell counts after 72 h); type: cell-based; details: 100 nM to 0.1 nM, 0.5% DMSO
Method: (§1) 18. To verify their potential as prodrugs, two taxol esters, taxol 2′-chloroacetate (2) and taxol 2′-acrylate (3), were tested for cytotoxicity against HL-60 cells, a promyelocytic leukemia cell line, and MOLT-4 cells, a lymphoblastic leukemia cell line.^20 Both derivatives had IC50 values about ten times higher than that of taxol for each cell line.
(§2) 20. Cells were seeded in 96-well plates at densities of 30,000 cells/well and grown in RPMI-1640 medium containing 10% bovine calf serum at 37° C. for 24 h. The medium was then replaced with fresh medium containing the taxol esters (excluding taxol, which had been removed by preparative TLC) dissolved in DMSO at final concentrations ranging from 100 nM to 0.1 nM. The final concentration of DMSO in the cell medium was 0.5%. After 72 h, samples were removed for cell counts. Total cell number and viability were determined by trypan blue exclusion and manual cell counting on a hemacytometer.

[2] = system: HL-60 cells, a promyelocytic leukemia cell line; test: cytotoxicity against HL-60 cells (trypan blue exclusion, cell counts after 72 h); type: cell-based; details: 100 nM to 0.1 nM, 0.5% DMSO
Method: as §1, §2

solubility (solubility in water; water) | Structure (SMILES) | solubility greater than that of taxol (solubility in water) | increase of water solubility relative to taxol (solubility in water; water) | IC50 relative to that of taxol [1] | IC50 relative to that of taxol [2]
– | CC(=O)O[C@H]1C(=O)[C@@]2(C)C([C@H](OC(=O)c3ccccc3)[C@]3(O)C[C@H](OC(=O)[C@H](OC(=O)CCCCC(=O)OCC4OC(O)C(O)C(O)C4O)[C@@H](NC(=O)c4ccccc4)c4ccccc4)C(C)=C1C3(C)C)[C@]1(OC(C)=O)CO[C@@H]1C[C@@H]2O (stereo partly drawn) [taxol 2′-(adipoyl)glucose, Taxol 2′-(adipoyl) glucose] | 60 times | 58 fold | – | –
– | CC(=O)O[C@H]1C(=O)[C@@]2(C)C([C@H](OC(=O)c3ccccc3)[C@]3(O)C[C@H](OC(=O)[C@H](OC(=O)CCCCC(=O)O)[C@@H](NC(=O)c4ccccc4)c4ccccc4)C(C)=C1C3(C)C)[C@]1(OC(C)=O)CO[C@@H]1C[C@@H]2O (stereo partly drawn) [taxol 2′-adipic acid, Taxol 2′-adipic acid] | 1,700 times | 1625 fold | – | –
– | CC(=O)OC1C(=O)C2(C)C(O)CC3OCC3(OC(C)=O)C2C(OC(=O)c2ccccc2)C2(O)CC(OC(=O)C(OC(=O)CCl)C(NC(=O)c3ccccc3)c3ccccc3)C(C)=C1C2(C)C (stereo not drawn) [compound 2, taxol 2′-chloroacetate] | – | – | about ten | about ten
< 4 µg/mL | CC(=O)O[C@H]1C(=O)[C@@]2(C)[C@H]([C@H](OC(=O)c3ccccc3)[C@]3(O)C[C@H](OC(=O)[C@H](O)[C@@H](NC(=O)c4ccccc4)c4ccccc4)C(C)=C1C3(C)C)[C@]1(OC(C)=O)CO[C@@H]1C[C@@H]2O [taxol] | – | – | – | –
– | C=CC(=O)OC(C(=O)OC1CC2(O)C(OC(=O)c3ccccc3)C3C4(OC(C)=O)COC4CC(O)C3(C)C(=O)C(OC(C)=O)C(=C1C)C2(C)C)C(NC(=O)c1ccccc1)c1ccccc1 (stereo not drawn) [compound 3, Taxol 2′-acrylate] | – | – | about ten | about ten
